Source: patent US20150230474A1, “Use of Glyphosate to Control Clubroot Disease” (priority 2014, published 2015)
Entries after “also recorded” stand apart in the source; their conditions may differ.

Legend:
VT500G canola plants = assay: Growth impediment of canola seedlings after pre-seeding glyphosate treatment of potting mix; type: in vivo, Brassica napus
Description: (§1) Canola plants, cultivar Westar and the Roundup®-resistant transgenic line VT500G of Brassica napus, were used. Plants were grown in a phytotron at 22° C. with a light/dark photoperiod of 16 h/8 h (light intensity 120 μmol m^−2 s^−1).
(§2) Potting mix consisting of fine peat moss, vermiculite, gypsum, dolomitic limestone and starter nutrient (Sunshine Mix #3; pH 5.8-6.2; Sun Gro Horticulture Canada Ltd., Canada) in 13 cm diameter plastic pots was inoculated with P. brassicae spores. The P. brassicae infested potting soil was then irrigated with 350 ml of water or glyphosate (Roundup®, Monsanto Canada Inc.) solution to provide an application rate of 0 mg, 143, 286, or 572 mg of glyphosate per 13 cm pot containing 750 cm3 of potting mix. VT500G canola seeds were subsequently sown on the treated potting mix and allowed to grow at 22° C. with a light/dark photoperiod of 16 h/8 h for 65 days. Plant growth and clubroot symptom development were monitored over the incubation time course.

Plasmodiophora brassicae [1] = assay: Pre-seeding treatment of P. brassicae infested potting mix, VT500G canola then sown; type: in vivo; settings: for plant growth / foliar symptoms of clubroot disease: 35 days post seeding; for early senescence: 60 days post seeding
Description: (§3) An isolate of clubroot pathogen Plasmodiophora brassicae was obtained from infested canola fields in central Alberta. The pathogen population from this collection may represent a mixture of pathotypes, but pathotype 3 is expected to be predominant (Peng et al., 2011). The inoculum was propagated using a susceptible canola cv. Westar grown in the infested soil with spores. Fresh clubroot galls were harvested, air dried, and stored at 4° C., and were further used for fresh inoculum preparation. To extract spores, 2-5 g of air-dried galls were soaked in distilled water for a few hours to soften the tissues and then ground in a mortar with pestle. The resulting slurry was filtered through three layers of cheesecloth and the spore concentration was estimated under a microscope. Inoculum concentration of 1.0·10^7 resting spores/ml was used for inoculation.
as §1, §2

Plasmodiophora brassicae [2] = assay: Treatment of canola seedlings: potting mix irrigated with glyphosate solution, then inoculated with P. brassicae spores; type: in vivo; settings: 572 mg/pot glyphosate, 15 days post-inoculation, VT500G canola
Description: as §3
Canola plants, cultivar Westar and the glyphosate-resistant transgenic line VT500G of Brassica napus, were used. Plants were grown in a phytotron at 22° C. with a light/dark photoperiod of 16 h/8 h (light intensity 120 μmol m^−2 s^−1). […]

O=C(O)CNCP(=O)(O)O [glyphosate, N-(phosphonomethyl)glycine]
chlorosis of leaves (VT500G canola plants; 572 mg/pot, 12 days post seeding): light chlorosis on true leaves | growth retardation (VT500G canola plants; 572 mg/pot, 22 days post seeding): slightly retarded growth | growth impediment of seedlings (VT500G canola plants; glyphosate-treated seedlings, early stages): Some growth retardation; also recorded: some growth impediment | plant growth / foliar symptoms of clubroot disease (Plasmodiophora brassicae [1]; 143 mg/pot): normal growth | early senescence (Plasmodiophora brassicae [1]; 143 mg/pot): appeared less affected, albeit with some signs of early senescence; also recorded: showed an early senescence | silique/seed production (Plasmodiophora brassicae [1]; 143 mg/pot, 65 days post seeding): Abortions of silique development were frequently observed | plant growth / foliar symptoms of clubroot disease (Plasmodiophora brassicae [1]; 286 mg/pot): normal growth | early senescence (Plasmodiophora brassicae [1]; 286 mg/pot): did not display early senescence | silique/seed production (Plasmodiophora brassicae [1]; 286 mg/pot, 65 days post seeding): normal silique/seed production | plant growth / foliar symptoms of clubroot disease (Plasmodiophora brassicae [1]; 572 mg/pot): normal growth | early senescence (Plasmodiophora brassicae [1]; 572 mg/pot): did not display early senescence | silique/seed production (Plasmodiophora brassicae [1]; 572 mg/pot, 65 days post seeding): normal silique/seed production | plant survival (Plasmodiophora brassicae [1]; all glyphosate treatments (143, 286, 572 mg/pot), 65 days post seeding): all glyphosate treated plants had survived | incidence of clubroot disease (Plasmodiophora brassicae [1]; drench application of glyphosate pesticide solution to inoculated potting mix, glyphosate-resistant canola): reduced the incidence of clubroot disease | clubroot development in the root system (Plasmodiophora brassicae [2]): prevented visible clubroot development
